Laboratory results as given in patent US20040172685A1, “Method of using MAPK4 and orthologues thereof to control plant disease resistance and plant growth” (priority 1999, published 2004).

Tests used:
PDF1.2 mRNA = experiment: MeJA treatment of plants, RNA gel blot of JA-responsive PDF1.2 mRNA; format: in vivo, Arabidopsis
THI2.1 mRNA = experiment: MeJA treatment of plants, RNA gel blot of JA-responsive THI2.1 mRNA; format: in vivo, Arabidopsis; settings: for THI2.1 mRNA accumulation after MeJA treatment: not shown
[1] = nahG expressing wild type plants

For CC/C=C\CC1C(=O)CCC1CC(=O)OC (stereo not drawn) [MeJA, methyl jasmonate], the “PDF1.2 mRNA accumulation after MeJA treatment” value (PDF1.2 mRNA; mpk4/nahG plants) was “not inducible”, the “induction of PDF1.2 expression” value (PDF1.2 mRNA; mpk4 mutant plants, sprayed with 50 μM MeJA, harvested after 48 hours) was “failed to induce” and the “PDF1.2 mRNA accumulation after MeJA treatment” value (PDF1.2 mRNA; [1]) was “induced”. For the same compound, the “THI2.1 mRNA accumulation after MeJA treatment” value (THI2.1 mRNA; mpk4/nahG plants) was “not inducible”, the “induction of THI2.1 expression” value (THI2.1 mRNA; mpk4 mutant plants, sprayed with 50 μM MeJA, harvested after 48 hours, data not shown) was “failed to induce” and the “THI2.1 mRNA accumulation after MeJA treatment” value (THI2.1 mRNA; [1]) was “induced”.
